Data published in patent US6924296B2, “Antithrombotic agents” (Eli Lilly and Company, priority 2000, dated 2005).
Where a name gives a salt, the structure may show the parent alone.

Target: human factor Xa (Homo sapiens, UniProt P00742)
Assay: Factor Xa chromogenic substrate inhibitor binding affinity assay (apparent Kass)
Conditions: 1.34 nM human factor Xa, 0.18 mM BzIle-Glu-Gly-Arg-pNA; mean value; read-out: Kass (apparent association constant) (converted)
Procedure: The inhibition by a compound of the inhibition of a serine protease of the human blood coagulation system or of the fibrinolytic system, as well as of trypsin, is determined in vitro for the particular enzyme by measuring its inhibitor binding affinity in an assay in which the enzyme hydrolyzes a particular chromogenic substrate, for example as described in Smith, G. F.; Gifford-Moore, D.; Craft, T. J.; Chirgadze, N.; Ruterbories, K. J.; Lindstrom, T. D.; Satterwhite, J. H. Efegatran: A New Cardiovascular Anticoagulant. New Anticoagulants for the Cardiovascular Patient; Pifarre, R., Ed.; Hanley & Belfus, Inc.: Philadelphia, 1997; pp. 265-300. The inhibitor binding affinity is measured as apparent association constant Kass which is the hypothetical equilibrium constant for the reaction between enzyme and the test inhibitor compound (I).
Enzyme+I⇄Enzyme−I [formula]
Conveniently, enzyme inhibition kinetics are performed in 96-well polystyrene plates and reaction rates are determined from the rate of hydrolysis of appropriate p-nitroanilide substrates at 405 nm using a Thermomax plate reader from Molecular Devices (San Francisco, Calif.). […] The rates of chromogenic substrate hydrolysis reactions provide a linear relationship with the enzymes studied such that free enzyme can be quantitated in reaction mixtures. […]

human factor Xa, sequence (P00742 235-488 limits assumed): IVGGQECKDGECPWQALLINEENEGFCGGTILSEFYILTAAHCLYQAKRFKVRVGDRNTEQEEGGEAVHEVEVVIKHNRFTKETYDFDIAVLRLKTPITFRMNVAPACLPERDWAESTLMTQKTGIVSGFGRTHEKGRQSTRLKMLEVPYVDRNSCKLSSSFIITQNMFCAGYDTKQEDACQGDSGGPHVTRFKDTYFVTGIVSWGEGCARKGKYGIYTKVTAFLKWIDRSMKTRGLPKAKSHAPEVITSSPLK
human factor Xa, sequence (P00742 41-179 partner limits assumed): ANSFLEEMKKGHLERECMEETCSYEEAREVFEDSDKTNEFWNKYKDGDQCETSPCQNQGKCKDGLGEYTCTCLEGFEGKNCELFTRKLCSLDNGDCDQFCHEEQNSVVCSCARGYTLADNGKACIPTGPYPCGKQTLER

- Kd: 0.472 µM
Structure (SMILES): O=C(NC1CCN(C(=O)C2CCN(c3ccncc3)CC2)C1)c1ccc2cc[nH]c2c1 (stereo not shown) [Example 1, 3-[(6-Indolyl)carbonyl]amino-1-[[1-(4-pyridinyl)piperidin-4-yl]carbonyl]pyrrolidine Hydrochloride Salt]
